From publication PMC8247983 (Chemmedchem, 2021) come the findings set out here.

This test addresses hBChE (Homo sapiens, UniProt P06276). Put plainly: Ellman's assay. In kind it is biochemical. For orientation: Ellman's reagent forms a yellow product with free thiols.

Chain of hBChE (P06276 29-602): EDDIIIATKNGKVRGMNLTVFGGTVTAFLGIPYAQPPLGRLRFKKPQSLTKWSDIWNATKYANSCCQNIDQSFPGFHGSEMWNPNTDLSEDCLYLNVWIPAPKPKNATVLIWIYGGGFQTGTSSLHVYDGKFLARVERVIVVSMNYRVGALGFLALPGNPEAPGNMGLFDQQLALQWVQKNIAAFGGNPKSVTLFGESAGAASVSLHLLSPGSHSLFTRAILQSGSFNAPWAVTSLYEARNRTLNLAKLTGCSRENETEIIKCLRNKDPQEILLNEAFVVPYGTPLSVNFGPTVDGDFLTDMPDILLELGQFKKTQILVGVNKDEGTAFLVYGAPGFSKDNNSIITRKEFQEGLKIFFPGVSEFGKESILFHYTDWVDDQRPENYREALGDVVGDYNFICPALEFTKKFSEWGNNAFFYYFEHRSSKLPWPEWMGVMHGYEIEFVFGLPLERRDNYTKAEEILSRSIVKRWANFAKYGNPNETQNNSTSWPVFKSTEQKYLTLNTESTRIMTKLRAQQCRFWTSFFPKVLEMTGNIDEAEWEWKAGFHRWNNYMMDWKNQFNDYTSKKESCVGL

Consider `CN1c2ccc(OC(=O)NCCCCCCN3CCOC(CF)C3)cc2CN2CCc3ccccc3C21` (racemic) [compound 2, 13‐Methyl‐5,8,13,13a‐tetrahydro‐6H‐isoquinolino[1,2‐b]quinazolin‐10‐yl‐{6‐[2‐(fluoromethyl)morpholino]‐hexyl}carbamate], for which the midpoint of inhibition, the IC50, lay at 0.0666 µM.

Usually IC50 stands for the concentration at which inhibition is half-maximal. Low readings indicate inhibition by little substance, high ones a need for much substance.
